How the values were obtained:
[1] = test system: androgen signaling signature in LNCaP cells; assay: GE-HTS androgen signaling signature assay / screen; conditions: LNCaP; for GE-HTS screen # replicates that score as the androgon deprived state (n = 3): KNN / GE-HTS screen # replicates that score as the androgon deprived state (n = 3): Naïve Bayes classifier (P < 0.05) / GE-HTS screen # replicates that score as the androgon deprived state (n = 3): unweighted summed score (P < 0.05) / GE-HTS screen # replicates that score as the androgon deprived state (n = 3): weighted summed score (P < 0.05): 1 nM R1881 plus compound ~20 μM, 24 hr, count of 3 replicates
[2] = test system: LNCaP cells; assay: Viability screen, luminescent ATP quantitation assay; conditions: 1 nM R1881 plus compound ~20 μM, 3 days
[3] = test system: celastrol and gedunin signatures; assay: Connectivity Map query with the celastrol and gedunin signatures (joint); format: cell-based, human; conditions: Connectivity Map profiles, 6 hr
Source text: Indeed, a major challenge in cell-based chemical biology and chemical genomics is the identification of compounds' targets (Gardner et al., 2003). We hypothesized that gene expression signatures could be used to identify compound action based on the similarity of such compound-induced signatures to signatures of existing drugs of known mechanism. We therefore employed a collection of gene expression profiles of drug-treated cell lines that was developed in our lab, termed the Connectivity Map (Lamb et al., 2006). This database comprises 453 genome-wide Affymetrix expression profiles derived from the treatment of human cell lines with 164 small molecules, primarily FDA-approved drugs. A 6 hr treatment time was chosen in an attempt to capture the primary, and potentially mechanistic, effects of the compounds rather than the downstream phenotypic consequences.
In order to use the Connectivity Map to gain insight into celastrol and gedunin function, we first defined a gene expression signature of celastrol and gedunin activity. The expression signatures of celastrol and gedunin were derived by expression profiling of RNA from LNCaP cells treated with celastrol (1.25 μM), gedunin (20 μM), and vehicle (DMSO) for 6 hr; signatures were defined using comparative marker selection to identify transcripts that distinguished between the compound- and vehicle-treated profiles by the signal-to-noise (SNR) metric. The enrichment of these signatures in the gene expression profiles of the Connectivity Map database was then assessed using a gene enrichment metric, the connectivity score, based on the Kolmogorov-Smirnov statistic (Lamb et al., 2003).
The celastrol and gedunin signatures were developed from RMA-processed microarray data from LNCaP cells treated with 1.25 μM celastrol or 20 μM gedunin for 6 hours. Comparative marker selection was used to identify markers that distinguished celastrol- and/or gedunin-treated samples from vehicle-treated samples by the median SNR (Golub et al., 1999). […]

[4] = test system: gedunin signature; assay: Connectivity Map query with the gedunin signature; format: cell-based, human; design: key to gedunin score (connectivity score): connectivity score, based on Kolmogorov-Smirnov statistic; conditions: for gedunin score (connectivity score): enrichment of the gedunin signature (20 μM gedunin at 6 hours, LNCaP) in the compound's Connectivity Map profiles, 6 hr treatment; for connectivity scores for the gedunin signature: multiple instances, gedunin signature from LNCaP, 6 hours; for gedunin rank: rank by gedunin score among 164 Connectivity Map compounds
Outline: (§1)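 LNCaP cells received celastrol 1.25 μM or gedunin 20 μM for 6 h. Each signature was scored by Kolmogorov–Smirnov-based connectivity against 453 build01 profiles, mostly 6 h treatments of MCF7 cells.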

[5] = test system: celastrol signature; assay: Connectivity Map query with the celastrol signature; format: cell-based, human; design: key to celastrol score (connectivity score): connectivity score, based on Kolmogorov-Smirnov statistic; conditions: for celastrol score (connectivity score): enrichment of the celastrol signature (1.25 μM celastrol at 6 h, LNCaP) in the compound's Connectivity Map profiles, 6 hr treatment; for celastrol rank: rank by celastrol score among 164 Connectivity Map compounds
Outline: as §1

Compound	GE-HTS screen # replicates that score as the androgon deprived state (n = 3): KNN [1]	GE-HTS screen # replicates that score as the androgon deprived state (n = 3): Naïve Bayes classifier (P < 0.05) [1]	GE-HTS screen # replicates that score as the androgon deprived state (n = 3): unweighted summed score (P < 0.05) [1]	GE-HTS screen # replicates that score as the androgon deprived state (n = 3): weighted summed score (P < 0.05) [1]	viability screen: viability (% [ATP] normalized to R1881-treated control) [2]	similarity of gene expression profile to the celastrol and gedunin signatures [3]	gedunin score (connectivity score) [4]	connectivity scores for the gedunin signature [4]	gedunin rank [4]	effect on the GE-HTS androgen signaling signature outside the screen ([1]; with and without 12 hours androgen pretreatment)	celastrol score (connectivity score) [5]	celastrol rank [5]
CC(=O)O[C@H]1CC[C@]2(C)C(C[C@@H](OC(C)=O)[C@]3(C)C4=CC(=O)O[C@H](c5ccoc5)[C@@]4(C)CCC23)C1(C)C (stereo partly drawn) [3-deoxo-3beta-acetoxydeoxydihydrogedunin]	3	3	3	3	51.0%							
C=CCNC1=C2C[C@@H](C)C[C@H](OC)[C@H](O)[C@@H](C)/C=C(\C)[C@H](OC(N)=O)[C@@H](OC)/C=C\C=C(/C)C(=O)NC(=CC1=O)C2=O [17-AAG, 17-allylamino-geldanamycin, reference compound]						very strong similarity	0.702	High connectivity scores	6	suppressed the androgen signaling signature	0.736	8
CO[C@H]1/C=C\C=C(/C)C(=O)NC2=CC(=O)C(NCCN(C)C)=C(C[C@@H](C)C[C@H](OC)[C@H](O)[C@@H](C)/C=C(\C)[C@@H]1OC(N)=O)C2=O [17-DMAG, 17-dimethylaminoethylamino-17-demethoxy-geldanamycin, reference compound]						very strong similarity	0.73	High connectivity scores	5		0.766	6
CCCCCCCCCCCCCCCC[N+](C)(C)C.[Br-] [cetrimonium bromide, reference compound]	3	3	0	0	109.7%							
CC1(C)C(=O)C=C[C@]2(C)[C@H]3CC[C@@]4(C)[C@H](c5ccoc5)OC(=O)[C@H]5O[C@]54[C@]3(C)C(=O)C[C@@H]12 [deacetoxy-7-oxogedunin]	3	3	3	3	69.0%							
CC(=O)O[C@@H]1C[C@H]2C(C)(C)C(=O)C=C[C@]2(C)[C@H]2CC[C@]3(C)C(=CC(=O)O[C@H]3c3ccoc3)[C@@]21C [deoxygedunin]	2	2	3	3	63.3%							
CC[C@@]1([C@@H]2O[C@@H]([C@H]3O[C@@](O)(CO)[C@H](C)C[C@@H]3C)C[C@@H]2C)CC[C@H]([C@]2(C)CC[C@]3(C[C@H](O)[C@@H](C)[C@@H]([C@@H](C)[C@@H](OC)[C@H](C)C(=O)O)O3)O2)O1 [monensin A, reference compound]	2	2	0	0	113.6%							
C[C@@H]1C[C@H]2O[C@@H]2/C=C\C=C\C(=O)Cc2c(Cl)c(O)cc(O)c2C(=O)O1 [monorden, reference compound]						very strong similarity	0.511				0.409	
C[C@@H]1[C@H](O)[C@@H](C)/C=C/C=C/CC/C=C/C=C/C=C/C=C/C(O[C@H]2O[C@H](C)[C@@H](O)[C@H](N)[C@@H]2O)CC2O[C@](O)(CC(O)C(O)CCC(O)CC(O)CC(O)CC(=O)O[C@H]1C)CC(O)C2C(=O)O (some centres unmarked) [nystatin, reference compound]	2	2	0	0	74.5%							
CC(=O)[C@H]1CC[C@H]2[C@@H]3CC=C4C[C@@H](O)CC[C@]4(C)[C@H]3CC[C@]12C [pregnenolone, reference compound]	3	2	0	0	91.5%							
dihydrocelastryl diacetate	2	0	3	0	50.7%							
estrone hemisuccinate [reference compound]	3	3	0	1	71.9%							
methylnortichexanthone	3	2	2	2								

Source: US20110263693A1, “CELASTROL, GEDUNIN, AND DERIVATIVES THEREOF AS HSP90 INHIBITORS” (DANA-FARBER CANCER INSTITUTE, INC., priority 2006, published 2011)
